Test results published in patent publication US20230149362A1, “NEW CAPSULE COMPOSITION FOR PERORAL ADMINISTRATION” (Vicore Pharma AB, priority 2020, published 2023).
Structures can show the parent of a compound that is named as a salt.

Test: Solubility of C21 sodium salt in lipid-based excipients (UPLC)
Type: physicochemical
Method: C21 sodium salt (RISE AB, Södertälje, Sweden) was mixed with various potential carriers in the proportions described in Table 5 below (mg of C21 per gram of excipient) and absolute solubility of C21 was determined, two and five days after mixing.
The procedure was carried out by first weighing around 2.955 g of each excipient into a 20 mL headspace vial. Then, 0.045 g of C21 was added to each vial to reach a starting concentration of 15 mg/g. A magnetic stirrer was added into each mixture to stir the dispersion during the entire study (at around 300 rpm).
Solubility was determined at room temperature in general, although some of the excipients listed below (those marked with an asterisk) are solid at room temperature, in which case solubility was determined at 60° C.
The mixtures were observed over time to confirm excipient saturation. In the case of complete C21 solubilization (i.e. no particles were visible), addition of C21 was performed until a maximum API concentration of 100 mg/g was attained.
After confirming that the saturation point had been reached, or after reaching the maximum API concentration of 100 mg/g, sampling of the mixtures were performed after two (T2) and five (T5) days of stirring.
At each tirnepoint, and for each excipient, sampling was performed. The samples were filtered prior to assaying to determine the C21 sodium salt solubility in each excipient.
Two analytical samples were prepared from the filtrate obtain a mean value.
A Waters UPLC Acquity system (CSH C18; 100×2.1 mm×1.7 μm) with a UV and a DED detector was used to quantitatively determine solubility. The following chromatograhpic conditions were applied: (A) mobile phase water with 003% TFA, (6) acetonitrile with 0.03% TFA, with gradient, flow rate 0.5 mL/min, temperature 40° C., run time 24 minutes, injection volume 2 μL at room temperature.

CCCCOC(=O)NS(=O)(=O)c1sc(CC(C)C)cc1-c1ccc(Cn2ccnc2)cc1 [C21 sodium salt, N-butyloxycarbonyl-3-(4-imidazol-1-ylmethylphenyl)-5-iso-butylthiophene-2-sulfonamide]
C21 Mean Solubility T5 Assay (Fasted Simulated Intestinal Fluid (FaSSIF), five days, room temperature): 10.4 mg/g | C21 Mean Solubility T2 Assay (Fasted Simulated Intestinal Fluid (FaSSIF), two days, room temperature): 10.4 mg/g | C21 Mean Solubility T5 Assay (Fed Simulated Intestinal Fluid (FeSSIF), five days, room temperature): 0.6 mg/g | C21 Mean Solubility T2 Assay (Fed Simulated Intestinal Fluid (FeSSIF), two days, room temperature): 0.3 mg/g | C21 Mean Solubility T5 Assay (Gelucire 43/01, five days, 60° C.): 0.0 mg/g | C21 Mean Solubility T2 Assay (Gelucire 43/01, two days, 60° C.): 0.0 mg/g | C21 Mean Solubility T5 Assay (Gelucire 44/14, five days, 60° C.): 43.9 mg/g | C21 Mean Solubility T2 Assay (Gelucire 44/14, two days, 60° C.): 44.1 mg/g | C21 Mean Solubility T5 Assay (Glyceryl monolinoleate (Maisine CC), five days, room temperature): 60.4 mg/g | C21 Mean Solubility T2 Assay (Glyceryl monolinoleate (Maisine CC), two days, room temperature): 61.4 mg/g | C21 Mean Solubility T5 Assay (Glyceryl monooleate (Peceol), five days, room temperature): 82.2 mg/g | C21 Mean Solubility T2 Assay (Glyceryl monooleate (Peceol), two days, room temperature): 82.3 mg/g | solubility (Labrafil M2130CS, at 60° C.): around 14 mg/g | C21 Mean Solubility T5 Assay (Lauryl polyoxyl-6-glycerides (Labrafil M 2130 CS), five days, 60° C.): 13.5 mg/g | C21 Mean Solubility T2 Assay (Lauryl polyoxyl-6-glycerides (Labrafil M 2130 CS), two days, 60° C.): 13.9 mg/g | C21 Mean Solubility T5 Assay (Linoleoyl polyoxyl-6-glycerides (Labrafil M 2125 CS), five days, room temperature): 21.1 mg/g | C21 Mean Solubility T2 Assay (Linoleoyl polyoxyl-6-glycerides (Labrafil M 2125 CS), two days, room temperature): 22.0 mg/g | C21 Mean Solubility T5 Assay (Medium chain triglycerides (Miglyol 812N), five days, room temperature): 0.0 mg/g | C21 Mean Solubility T2 Assay (Medium chain triglycerides (Miglyol 812N), two days, room temperature): 0.0 mg/g | C21 Mean Solubility T5 Assay (Oleoyl polyoxyl-6-glycerides (Labrafil M 1944 CS), five days, room temperature): 20.1 mg/g | C21 Mean Solubility T2 Assay (Oleoyl polyoxyl-6-glycerides (Labrafil M 1944 CS), two days, room temperature): 19.5 mg/g | C21 Mean Solubility T5 Assay (Polyoxyethylene (20) sorbitan monooleate (Tween 80), five days, room temperature): 84.8 mg/g | C21 Mean Solubility T2 Assay (Polyoxyethylene (20) sorbitan monooleate (Tween 80), two days, room temperature): 85.2 mg/g | C21 Mean Solubility T5 Assay (Propylene glycol monocaprylate (Capryol PGMC), five days, room temperature): 7.1 mg/g | C21 Mean Solubility T2 Assay (Propylene glycol monocaprylate (Capryol PGMC), two days, room temperature): 7.1 mg/g | C21 Mean Solubility T5 Assay (Propylene glycol monolaurate (Lauroglycol 90), five days, room temperature): 12.4 mg/g | C21 Mean Solubility T2 Assay (Propylene glycol monolaurate (Lauroglycol 90), two days, room temperature): 12.4 mg/g | C21 Mean Solubility T5 Assay (Refined corn oil (Henry Lamotte), five days, room temperature): 0.0 mg/g | C21 Mean Solubility T2 Assay (Refined corn oil (Henry Lamotte), two days, room temperature): 0.0 mg/g | C21 Mean Solubility T5 Assay (Refined sesame oil (Henry Lamotte), five days of stirring, room temperature): 0.2 mg/g | C21 Mean Solubility T2 Assay (Refined sesame oil (Henry Lamotte), two days of stirring, room temperature): 0.2 mg/g | C21 Mean Solubility T5 Assay (Sorbitan monooleate (Montane 80), five days, room temperature): 61.5 mg/g | C21 Mean Solubility T2 Assay (Sorbitan monooleate (Montane 80), two days, room temperature): 61.6 mg/g | C21 Mean Solubility T5 Assay (Sorbitan trioleate (Span 85), five days, room temperature): 12.1 mg/g | C21 Mean Solubility T2 Assay (Sorbitan trioleate (Span 85), two days, room temperature): 15.1 mg/g | C21 Mean Solubility T5 Assay (Soya oil (Henry Lamotte), five days, room temperature): 0.0 mg/g | C21 Mean Solubility T2 Assay (Soya oil (Henry Lamotte), two days, room temperature): 0.0 mg/g | C21 Mean Solubility T5 Assay (Triacetin (Kollisolv GTA), five days, room temperature): 0.3 mg/g | C21 Mean Solubility T2 Assay (Triacetin (Kollisolv GTA), two days, room temperature): 0.2 mg/g | solubility in words (triglyceride-based excipients): essentially insoluble
